Reference: patent EP0489933A1, “BILE ALCOHOL AND DRUG CONTAINING THE SAME AS ACTIVE INGREDIENT” (TSUMURA CO., LTD., priority 1990, dated 1992)
Read-outs that look alike come from different tables or passages of the source.

Experiments:
[1] = system: male mice of ddY line; assay: Survival time under hypoxia (aeration with 96% nitrogen and 4% oxygen); assay type: in vivo; settings: 50 mg/kg, i.p., 60 minutes before aeration with 96% nitrogen and 4% oxygen; time to respiratory arrest
Experimental: In this experiment, 5 to 6-week-old male mice of ddY line (10 individuals per one group) were used after fasting treatment for 24 hours.
Each compound obtained in the present invention was administered intraperitoneally. After 60 minutes of the administration, each mouse was transferred separately into a transparent vessel (capacity, 1,000 ml) equipped with an air exit, and the vessel was aerated with a mixed gas consisting of 96% nitrogen and 4% oxygen at an aeration rate of 5 ℓ/min.
All tested mice died within 180 seconds after the commencement of the gas mixture aeration. Terminal respiration was observed several times prior to the respiratory arrest. Survival time of the control group was roughly in the range of from 96 to 111 seconds.

[2] = system: male mice of ddY line; assay type: in vivo; settings: 50 mg/kg, i.p., 60 minutes before KCN (3.0 mg/kg) tail intravenous injection; for Survival Time ±S.E.: time to respiratory arrest
[3] = system: male mice of ddY line; assay: Blood oxygen and carbon dioxide partial pressure; assay type: in vivo; settings: 20 mg/kg, i.p.; blood from abdominal aorta 60 minutes after administration
Experimental: In this experiment, 4-week-old male mice of ddY line (10 individuals per one group) were used after fasting treatment for 24 hours.
After 60 minutes of the administration of each compound of the present invention, each mouse was subjected to ventrotomy under anesthesia with Nembutal® (Dainabot Co., Ltd.; 50 mg/kg, i.p.) to collect blood from abdominal aorta, and the collected blood sample was immediately checked for its oxygen partial pressure (PO₂) and carbon dioxide partial pressure (PCO₂) using a blood-aerotonometer (Model 170, Ciba-Corning).

[4] = system: red blood cells; assay: Inhibition of thermal hemolysis of red blood cells; assay type: cell-based, donryu rats; settings: 53°C for 20 minutes; for inhibition at 10 µM / inhibition at 50 µM / inhibition at 100 µM / inhibition at 200 µM / inhibition at 500 µM: Rattus norvegicus, Erythrocyte, 20 min, read-out: Hemolysis Inhibition Ratio (%) against Control
Experimental: Blood was collected from donryu rats of 150 to 200 g in body weight and centrifuged at 1,500 rpm for 5 minutes to obtain red blood cells. The red blood cells thus collected were diluted with 0.15 M phosphate buffer (pH 7.4) to prepare a 5% red blood cell suspension. A 3.8 ml portion of the thus prepared suspension was mixed with 0.2 ml solution of each compound of the present invention which has been adjusted to each level of the concentrations as shown in the following table, and the resulting mixture was shaken thoroughly and incubated at 53°C for 20 minutes. Thereafter, the thus incubated mixture was cooled rapidly with tap water and centrifuged at 3,000 rpm for 15 minutes, and absorbance at 540 nm of the resulting supernatant fluid was measured using a spectrophotometer (Hitachi: Type 200-20). Inhibition rate (%) of red blood cell hemolysis at each concentration of the compound was calculated based on the absorbance, with the results shown in Table 8.

[5] = system: rats of diabetes mellitus; assay: Blood sugar level in streptozotocin-induced diabetes mellitus; assay type: in vivo, male rats of Wistar line; settings: 50 mg/kg, i.o.; administered for 1 week beginning 1 week after streptozotocin (40 mg/kg); serum
Experimental: In this experiment, 8-week-old male rats of Wistar line (5 individuals per one group) were used after rearing them for 1 week with normal feed. Streptozotocin (40 mg/kg) was administered by tail intravenous injection to obtain rats of diabetes mellitus. Beginning after 1 week of the streptozotocin administration, oral administration of each test drug has been carried out for 1 week, followed by 24 hours of fasting. Thereafter, blood sample was collected from lower abdominal vena cava under anesthesia with Nembutal® (1 ml/kg, i.p.). Serum samples were prepared from the thus collected blood samples and checked for their blood sugar levels, with the results shown in Table 9.

[6] = system: erythrocytes; assay: Erythrocyte deformability (filtration through 5 µm filter) after oral administration; assay type: in vivo, male rats of Wistar line; settings: 30 mg/kg, p.o.; blood collected 90 minutes after administration; number of filtered erythrocytes
Experimental: In this experiment, 9-week-old male rats of Wistar line (5 to 6 individuals per one group) were used after rearing them for 1 week with normal feed. After 24 hours of fasting, each test drug was administered orally and, 90 minutes thereafter, blood sample was collected from lower abdominal vena cava of each rat under anesthesia with Nembutal® (1 ml/kg, i.p.). Blood samples obtained in this way were checked for their blood clotting time and erythrocyte deformability.
Measuring procedures are as follows.
Erythrocyte deformability ... The collected blood is extruded from a syringe with a constant flow of He in a holder equipped with a filter (5 µm). Weight of blood and the number of erythrocytes filtered during a fixed time are measured and the deformability is expressed based on the number of filtered erythrocytes. The results of these measurements are shown respectively in Tables 11 and 12.

[7] = system: male SD rats; assay: Thrombus formation in abdominal vena cava; assay type: in vivo; settings: 30 mg/kg, p.o.; dry weight of thrombus
Experimental: Each of male SD rats of 130 to 210 g in body weight was anesthetized with Nembutal® (50 mg/kg, i.p.) and subjected to median incision ventrotomy to release about a 2 cm portion of abdominal vena cava below the renal vein. Blood flow of the thus released vena cava was temporarily stopped for 5 minutes with 8 hemostatic clips. After recirculating blood for 5 minutes by removing the hemostatic clips, […] was ligated at a position just below the renal vein and the median-incised part was sutured. Two hours after the ligature, the thus treated rat was again subjected to ventrotomy to excise abdominal vena cava. The thus excised blood vessel was cut open on a filter paper which had been moistened with physiological saline, in order to take out thrombus. The thrombus thus obtained was washed with physiological saline to remove adhered blood and the like substances and then dried at 80°C for 12 hours or longer to measure its dry weight. In this instance, each drug to be tested was orally administered 90 minutes before the clipping to examine its effect by single administration on the formation of thrombus. Separately from this, each test drug was administered to 6-week-old male SD rat continuously for 7 days, thrombus was prepared in the eighth day in the same manner as described above and dry weight of the thrombus was measured, in order to examine effect of the continuous 7 day administration on the thrombus formation.

[8] = system: platelet rich plasma (PRP); assay: Platelet aggregation in platelet rich plasma after oral administration; assay type: in vivo, male rat; settings: 30 mg/kg, p.o., blood 90 minutes after administration
Experimental: Each drug to be tested was orally administered to each male rat which has been subjected to fasting treatment for 18 to 24 hours. After 90 minutes of the administration, median incision ventrotomy was carried out under ether anesthesia to collect 9 volumes of blood using a syringe filled with 1 volume of 3.8% sodium citrate solution (3.8% sodium citrate solution:blood = 1:9). After thorough mixing, the thus prepared mixture was centrifuged at 800 rpm for 10 minutes at room temperature to collect the resulting supernatant fluid as platelet rich plasma (PRP). The residual portion was centrifuged at 3,000 rpm for 15 minutes at room temperature to collect the resulting supernatant fluid as platelet poor plasma (PPP). The PRP was diluted with the PPP to adjust the number of platelets to 3×10⁵ ± 2×10⁴ cells/µl. A 450 µl portion of the thus diluted PRP was incubated at 37°C for 3 minutes and then mixed with 50 µl of 1×10⁻⁵ M of ADP or 1×10⁻⁵ g/ml of collagen. Thereafter, platelet aggregation test of the mixture was carried out using an aggregometer by measuring transmittance at 940 nm.

SMILES	Survival Time ±S.E. [1] [s]	Lethality (%) [2] [%]	Survival Time ±S.E. [2] [s]	Carbon Dioxide Partial Pressure [3] [mmHg]	Oxygen Partial Pressure [3] [mmHg]	inhibition at 10 µM ([4]; 0.01 mM) [%]	inhibition at 50 µM ([4]; 0.05 mM) [%]	inhibition at 100 µM ([4]; 0.1 mM) [%]	inhibition at 200 µM ([4]; 0.2 mM) [%]	inhibition at 500 µM ([4]; 0.5 mM) [%]	Blood Sugar Level ± S.E. [5] [mg/dL]	Erythrocyte Deformation: Erythrocyte counts ±S.E. [6] [× 10⁷]	Antithrombotic Effect: Thrombus weight ±S.E. [7] [mg]	Platelet Aggregation Ratio ±S.E. ([8]; ADP (1×10⁻⁵ M)) [%]	Platelet Aggregation Ratio ±S.E. ([8]; Collagen (1×10⁻⁵ g/ml)) [%]	Hemolysis Inhibition Ratio (%) against Control ([4]; 0.01 mM) [%]	Hemolysis Inhibition Ratio (%) against Control ([4]; 0.05 mM) [%]	Hemolysis Inhibition Ratio (%) against Control ([4]; 0.1 mM) [%]	Hemolysis Inhibition Ratio (%) against Control ([4]; 0.2 mM) [%]	Hemolysis Inhibition Ratio (%) against Control ([4]; 0.5 mM) [%]
C[C@H](CC[C@@H](O)[C@@H](C)CO)[C@H]1CC[C@H]2[C@@H]3[C@H](O)C[C@@H]4C[C@H](O)CC[C@]4(C)[C@H]3C[C@H](O)[C@]12C [Example 11, (24R)-(25S)-3α,7α,12α,24,26-pentahydroxy-5β-cholestane]	121.1 ± 2.60	80	103.0 ± 7.56	40.5	86.1	20	18	30	43	51	187 ± 2.5	3.95 ± 0.64	14.4 ± 2.01	43.3 ± 2.81	40.8 ± 1.90					
C[C@H](CO)[C@H](O)CC[C@@H](C)[C@H]1CC[C@H]2[C@@H]3[C@H](O)C[C@@H]4C[C@H](O)CC[C@]4(C)[C@H]3C[C@H](O)[C@]12C [Example 12, (24R)-(25R)-3α,7α,12α,24,26-pentahydroxy-5β-cholestane]	118.1 ± 3.33	90	121.3 ± 3.21	41.1	87.1	24	20	33	48	55	163 ± 3.8	3.80 ± 0.78	12.2 ± 1.88	46.5 ± 5.82	41.3 ± 3.81					
C[C@H](CC[C@@H](O)C(CO)CO)[C@H]1CC[C@H]2[C@@H]3[C@H](O)C[C@@H]4C[C@H](O)CC[C@]4(C)[C@H]3C[C@H](O)[C@]12C [Illustrative Example 1, (24R)-(+)-3α,7α,12α,24,26,27-hexahydroxy-5β-cholestane]	155.4 ± 13.2	70	159 ± 10.72	41.3	98.6	23	20	42	53	80	177 ± 5.5	3.72 ± 0.55	15.1 ± 1.98	50.3 ± 1.32	43.8 ± 3.99					
C[C@H](CC[C@@H](O)CCO)[C@H]1CC[C@H]2[C@@H]3[C@H](O)C[C@@H]4C[C@H](O)CC[C@]4(C)[C@H]3C[C@H](O)[C@]12C [Illustrative Example 2, 27-nor-(24R)-(+)-3α,7α,12α,24,26-pentahydroxy-5β-cholestane]	116.3 ± 4.86	80	95.3 ± 11.12	42.1	85.4						171 ± 4.7	3.62 ± 0.46	13.4 ± 2.38	51.5 ± 1.55	44.4 ± 4.51	31	23	38	60	71
